The supplement of paper PMC10307832

Experiments:
Assay in all cases: relative viability (nuclei count vs DMSO), 5 days (fraction); higher = more cells survive
[1] = system: BEN
Summary of the method: (§1)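 Lung cancer cell lines in 1536-well plates were dosed by pin tool the day after seeding, either with one drug alone or with a fixed anchor-drug dose plus five library-drug doses (not always all listed) in √10 steps. After 5 days, cells were fixed and their nuclei stained in one step (final 0.05% Triton X-100, 1% formaldehyde, 1 ug/ml Hoechst), then counted on 4× images. Relative viability is the nuclei count in treated wells divided by that in vehicle wells. Values are medians of duplicate plates.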

[2] = system: EKVX
Summary of the method: as §1

[3] = system: NCI-H727
Summary of the method: as §1

[4] = system: SW 900
Summary of the method: as §1

[5] = system: HCC-366
Summary of the method: as §1

[6] = system: NCI-H1650
Summary of the method: as §1

[7] = system: PC-14
Summary of the method: as §1

[8] = system: LOU-NH91
Summary of the method: as §1

[9] = system: NCI-H3122
Summary of the method: as §1

[10] = system: NCI-H661
Summary of the method: as §1

[11] = system: NCI-H441
Summary of the method: as §1

[12] = system: NCI-H2009
Summary of the method: as §1

[13] = system: NCI-H460
Summary of the method: as §1

[14] = system: 201T
Summary of the method: as §1

[15] = system: NCI-H1666
Summary of the method: as §1

[16] = system: CAL-12T
Summary of the method: as §1

[17] = system: COR-L 105
Summary of the method: as §1

[18] = system: LK-2
Summary of the method: as §1

[19] = system: HARA
Summary of the method: as §1

[20] = system: NCI-H1437
Summary of the method: as §1

[21] = system: NCI-H2170
Summary of the method: as §1

CC(=O)O[C@@]12CO[C@@H]1C[C@H](O)[C@@]1(C)C(=O)[C@H](O)C3=C(C)[C@@H](OC(=O)[C@H](O)[C@@H](NC(=O)OC(C)(C)C)c4ccccc4)C[C@@](O)([C@@H](OC(=O)c4ccccc4)[C@H]21)C3(C)C [Docetaxel] + CC(=O)Nc1cccc(-n2c(=O)n(C3CC3)c(=O)c3c(Nc4ccc(I)cc4F)n(C)c(=O)c(C)c32)c1 [Trametinib] (partner 0.02 µM)
relative viability ([1]; first compound 0.0002 µM): 1.08
relative viability ([1]; first compound 0.000632 µM): 1.04
relative viability ([1]; first compound 0.002 µM): 0.763
relative viability ([1]; first compound 0.006325 µM): 0.419
relative viability ([1]; first compound 0.02 µM): 0.322
relative viability ([2]; first compound 0.0002 µM): 0.343
relative viability ([2]; first compound 0.000632 µM): 0.358
relative viability ([2]; first compound 0.002 µM): 0.185
relative viability ([2]; first compound 0.006325 µM): 0.286
relative viability ([2]; first compound 0.02 µM): 0.131
relative viability ([3]; first compound 0.0002 µM): 0.398
relative viability ([3]; first compound 0.000632 µM): 0.379
relative viability ([3]; first compound 0.002 µM): 0.402
relative viability ([3]; first compound 0.006325 µM): 0.386
relative viability ([3]; first compound 0.02 µM): 0.339
relative viability ([4]; first compound 0.0002 µM): 0.802
relative viability ([4]; first compound 0.000632 µM): 0.287
relative viability ([4]; first compound 0.002 µM): 0.232
relative viability ([4]; first compound 0.02 µM): 0.163
relative viability ([5]; first compound 0.0002 µM): 0.303
relative viability ([5]; first compound 0.000632 µM): 0.102
relative viability ([5]; first compound 0.002 µM): 0.0555
relative viability ([5]; first compound 0.006325 µM): 0.0799
relative viability ([5]; first compound 0.02 µM): 0.0179
relative viability ([6]; first compound 0.0002 µM): 0.392
relative viability ([6]; first compound 0.000632 µM): 0.4
relative viability ([6]; first compound 0.002 µM): 0.217
relative viability ([6]; first compound 0.006325 µM): 0.107
relative viability ([7]; first compound 0.0002 µM): 0.648
relative viability ([7]; first compound 0.000632 µM): 0.679
relative viability ([7]; first compound 0.002 µM): 0.0905
relative viability ([7]; first compound 0.006325 µM): 0.0687
relative viability ([7]; first compound 0.02 µM): 0.0257
relative viability ([8]; first compound 0.0002 µM): 0.766
relative viability ([8]; first compound 0.000632 µM): 0.783
relative viability ([8]; first compound 0.002 µM): 0.607
relative viability ([8]; first compound 0.006325 µM): 0.449
relative viability ([8]; first compound 0.02 µM): 0.354
relative viability ([9]; first compound 0.0002 µM): 0.219
relative viability ([9]; first compound 0.000632 µM): 0.215
relative viability ([9]; first compound 0.002 µM): 0.194
relative viability ([9]; first compound 0.006325 µM): 0.194
relative viability ([9]; first compound 0.02 µM): 0.128
relative viability ([10]; first compound 0.0002 µM): 0.53
relative viability ([10]; first compound 0.000632 µM): 0.611
relative viability ([10]; first compound 0.002 µM): 0.568
relative viability ([10]; first compound 0.006325 µM): 0.371
relative viability ([10]; first compound 0.02 µM): 0.347
relative viability ([11]; first compound 0.0002 µM): 0.389
relative viability ([11]; first compound 0.000632 µM): 0.255
relative viability ([11]; first compound 0.002 µM): 0.202
relative viability ([11]; first compound 0.006325 µM): 0.187
relative viability ([11]; first compound 0.02 µM): 0.144
relative viability ([12]; first compound 0.0002 µM): 0.273
relative viability ([12]; first compound 0.000632 µM): 0.312
relative viability ([12]; first compound 0.002 µM): 0.295
relative viability ([12]; first compound 0.006325 µM): 0.233
relative viability ([12]; first compound 0.02 µM): 0.175
relative viability ([13]; first compound 0.0002 µM): 0.103
relative viability ([13]; first compound 0.000632 µM): 0.0804
relative viability ([13]; first compound 0.002 µM): 0.0715
relative viability ([13]; first compound 0.006325 µM): 0.0192
relative viability ([13]; first compound 0.02 µM): 0.0118
relative viability ([14]; first compound 0.0002 µM): 0.7
relative viability ([14]; first compound 0.000632 µM): 0.713
relative viability ([14]; first compound 0.002 µM): 0.644
relative viability ([14]; first compound 0.006325 µM): 0.498
relative viability ([14]; first compound 0.02 µM): 0.366
relative viability ([15]; first compound 0.0002 µM): 0.846
relative viability ([15]; first compound 0.000632 µM): 0.695
relative viability ([15]; first compound 0.002 µM): 0.645
relative viability ([15]; first compound 0.006325 µM): 0.771
relative viability ([15]; first compound 0.02 µM): 0.521
relative viability ([16]; first compound 0.0002 µM): 0.294
relative viability ([16]; first compound 0.000632 µM): 0.267
relative viability ([16]; first compound 0.002 µM): 0.229
relative viability ([16]; first compound 0.006325 µM): 0.15
relative viability ([16]; first compound 0.02 µM): 0.119
relative viability ([17]; first compound 0.0002 µM): 0.399
relative viability ([17]; first compound 0.000632 µM): 0.445
relative viability ([17]; first compound 0.002 µM): 0.428
relative viability ([17]; first compound 0.006325 µM): 0.339
relative viability ([17]; first compound 0.02 µM): 0.392
relative viability ([18]; first compound 0.0002 µM): 0.683
relative viability ([18]; first compound 0.000632 µM): 0.528
relative viability ([18]; first compound 0.002 µM): 0.304
relative viability ([18]; first compound 0.006325 µM): 0.187
relative viability ([18]; first compound 0.02 µM): 0.136
relative viability ([19]; first compound 0.0002 µM): 0.456
relative viability ([19]; first compound 0.000632 µM): 0.155
relative viability ([19]; first compound 0.002 µM): 0.235
relative viability ([19]; first compound 0.006325 µM): 0.16
relative viability ([19]; first compound 0.02 µM): 0.104
relative viability ([20]; first compound 0.0002 µM): 0.528
relative viability ([20]; first compound 0.000632 µM): 0.501
relative viability ([20]; first compound 0.002 µM): 0.264
relative viability ([20]; first compound 0.006325 µM): 0.216
relative viability ([21]; first compound 0.0002 µM): 0.887
relative viability ([21]; first compound 0.000632 µM): 0.848
relative viability ([21]; first compound 0.002 µM): 0.746
relative viability ([21]; first compound 0.006325 µM): 0.222
relative viability ([21]; first compound 0.02 µM): 0.167
